Test results published in PubChem BioAssay AID208 (DTP/NCI, 2004).
Values joined by “and” are separate entries in the source; they are usually repeats but may differ in a detail not shown here. Equal entries are not always repeated. Records with an inconclusive call do not appear.

Tested on: HT29 intrarenal xenograft, nude mice, tumor weight change
Assay: NCI In Vivo Anticancer Drug Screen. Data for tumor model HT29;CX-1 Human Adenocarcinoma (MER+) (intrarenal inoculation) in NU/NU BALB/C (nude) mice
Details: endpoint: mean tumor weight change, higher = larger tumour
Procedure: The antitumor activity of compounds was measured in mice bearing transplantable tumors. Survival or tumor size were measured and the results are expressed as the measurement made in the treated group (T) divided by the measurement made in the vehicle treated control group (C). The tumor model used in this assay is HT29;CX-1 Human Adenocarcinoma (MER+) (intrarenal inoculation) in NU/NU BALB/C (nude) mice

## CC(=O)OC(C)C1C2=C(C(=O)CC1(C)O)C(=O)c1c(ccc(-c3ccc4c(c3O)C(=O)C3=C(C4=O)C(C(C)OC(C)=O)C(C)(O)CC3=O)c1O)C2=O (configuration not stated)
dose: 0.94 mg/kg/injection, schedule: Q04DX004 (ip), vehicle: saline with Tween-80
  T/C: 94 % of control
dose: 1.9 mg/kg/injection, schedule: Q04DX004 (ip), vehicle: saline with Tween-80
  T/C: 92 % of control
dose: 3.75 mg/kg/injection, schedule: Q04DX004 (ip), vehicle: saline with Tween-80
  T/C: 88 % of control
dose: 7.5 mg/kg/injection, schedule: Q04DX004 (ip), vehicle: saline with Tween-80
  T/C: 101 % of control
dose: 30.0 mg/kg/injection, schedule: Q04DX004 (ip), vehicle: saline with Tween-80
  T/C: 162 % of control

## c1ccc2c(c1)-c1ccccc1C1NC21 (configuration not stated)
dose: 75.0 mg/kg/injection, schedule: Q04DX004 (sc), vehicle: saline with Tween-80
  T/C: 41 % of control

## OCC(O)C(O)C(O)C(O)CO (configuration not stated)
dose: 75.0 mg/kg/injection, schedule: Q04DX004 (ip), vehicle: saline
  T/C: 104 % of control
dose: 150.0 mg/kg/injection, schedule: Q04DX004 (ip), vehicle: saline
  T/C: 115 % of control
dose: 300.0 mg/kg/injection, schedule: Q04DX004 (ip), vehicle: saline
  T/C: 82 % of control
dose: 600.0 mg/kg/injection, schedule: Q04DX004 (ip), vehicle: saline
  T/C: 90 % of control

## O=C1c2ccccc2C(=O)c2c1cn1c2Cc2ccccc2C1
dose: 37.5 mg/kg/injection, schedule: Q04DX004 (ip), vehicle: Klucel (hydroxypropylcellulose) (HPC)
  T/C: 908 % of control
dose: 75.0 mg/kg/injection, schedule: Q04DX004 (ip), vehicle: Klucel (hydroxypropylcellulose) (HPC)
  T/C: 537 % of control
dose: 150.0 mg/kg/injection, schedule: Q04DX004 (ip), vehicle: Klucel (hydroxypropylcellulose) (HPC)
  T/C: 753 % of control
dose: 300.0 mg/kg/injection, schedule: Q04DX004 (ip), vehicle: Klucel (hydroxypropylcellulose) (HPC)
  T/C: 188 % of control
dose: 600.0 mg/kg/injection, schedule: Q04DX004 (ip), vehicle: Klucel (hydroxypropylcellulose) (HPC)
  T/C: 450 % of control

## CC(O)CCC(=O)c1ccoc1 (configuration not stated)
dose: 3.75 mg/kg/injection, schedule: Q01DX010 (ip), vehicle: saline
  T/C: 97 % of control
dose: 7.5 mg/kg/injection, schedule: Q01DX010 (ip), vehicle: saline
  T/C: 88 % of control
dose: 15.0 mg/kg/injection, schedule: Q01DX010 (ip), vehicle: saline
  T/C: 108 % of control
dose: 30.0 mg/kg/injection, schedule: Q01DX010 (ip), vehicle: saline
  T/C: 89 % of control

## CO[C@@]12[C@H](COC(N)=O)C3=C(C(=O)C(C)=C(N)C3=O)N1C[C@@H]1N[C@@H]12
dose: 1.5 mg/kg/injection, schedule: Q04DX004 (sc), vehicle: saline
  T/C: 47 % of control and 52 % of control and 71 % of control
dose: 3.0 mg/kg/injection, schedule: Q04DX004 (sc), vehicle: saline
  T/C: -35 % of control and -23 % of control and -13 % of control
dose: 6.0 mg/kg/injection, schedule: Q04DX004 (sc), vehicle: saline
  T/C: -86 % of control

## O=c1[nH]c2c(ccc3cnccc32)c2c1CCC2
dose: 225.0 mg/kg/injection, schedule: Q04DX004 (sc), vehicle: suspension in saline
  T/C: 67 % of control
dose: 450.0 mg/kg/injection, schedule: Q04DX004 (sc), vehicle: suspension in saline
  T/C: 67 % of control
dose: 900.0 mg/kg/injection, schedule: Q04DX004 (sc), vehicle: suspension in saline
  T/C: 73 % of control
dose: 1800.0 mg/kg/injection, schedule: Q04DX004 (sc), vehicle: suspension in saline
  T/C: 53 % of control

## C=CC(C)NC(=S)NNC(=S)NC (configuration not stated)
dose: 150.0 mg/kg/injection, schedule: Q04DX004 (sc), vehicle: saline + alcohol
  T/C: 91 % of control
dose: 300.0 mg/kg/injection, schedule: Q04DX004 (sc), vehicle: saline + alcohol
  T/C: 44 % of control
dose: 600.0 mg/kg/injection, schedule: Q04DX004 (sc), vehicle: saline + alcohol
  T/C: 97 % of control
dose: 1200.0 mg/kg/injection, schedule: Q04DX004 (sc), vehicle: saline + alcohol
  T/C: 74 % of control

## C=C(C)[C@@H]1CCc2c(O)c(O)c(=O)cc(C)c2C1
dose: 75.0 mg/kg/injection, schedule: Q04DX004 (sc), vehicle: saline
  T/C: 192 % of control

## O=C1N[C@@H]2C(=C[C@H](O)[C@@H](O)[C@H]2O)c2cc3c(c(O)c21)OCO3
dose: 5.0 mg/kg/injection, schedule: Q04DX004 (sc), vehicle: saline with Tween-80
  T/C: 177 % of control
